Each structure is given as a SMILES string. Some results are limits rather than exact numbers.

Broadly, the melting point is the temperature of the solid-liquid transition. For the compound `C=CCOc1ccc(CC(=O)NCCCC)cc1`, the melting point was in the range of 87 to 89 °C.

`O=C(Nc1ccncn1)NN1CC=CCC1`: the melting point was found to be 188 °C.

`Cc1cc(C)c2c(c1C)OCC2c1ccc(C=O)cc1` (configuration not stated): the melting point was 87 to 88 °C.

As to `O=[N+]([O-])c1cc(Cl)ncc1CCc1ccccc1`, the melting point lay in the range of 76 to 78 °C.

As for `CC(C)c1cc(C(C)C)c2ncn(/C=C/C(=O)O)c(=O)c2c1`, the melting point fell in the range of 181 to 182 °C.

As to `N#CC1(N2CCN(c3ccccc3)CC2)CCCCC1`, the melting point lay in the range of 133 to 135 °C.

In turn, `Cc1cccc(-c2cn(C)cc(-c3ccc(Br)cc3)c2=O)c1` registered a melting point of 201 to 204 °C.

Consider `COc1cc(Cc2cnc(N)nc2N)cc(-c2ccc(CO)cc2)c1OC`, for which the melting point came out at 86 °C.

In the case of `Cc1nc(C(=O)NCCO[N+](=O)[O-])cs1`, the melting point lay within 78 to 79 °C.

Take `N#CCc1cn(Cc2ccc(OCc3ccccc3)cc2)nc1-c1ccc(F)cc1`: the melting point fell in the range of 86 to 87 °C.

For `CCC1(CC(=O)O)OCCc2c1[nH]c1c(C(C)C)cccc21` (configuration not stated), the melting point fell in the range of 158 to 159 °C.

Consider `CCCc1nc2c(N)nc3cc(OCCCCCCNC(C)=O)ccc3c2n1CCCCNS(C)(=O)=O`, for which the melting point fell in the range of 168 to 172 °C.

In turn, `CC(C)(C(=O)O)n1c(=O)[nH]c2cc(Cl)ccc2c1=O` showed a melting point of 260 to 263 °C.

Take `CCOC(=O)c1c(C)c(C(=O)C(C#N)C(=O)Nc2ccccc2)n(C)c1C` (configuration not stated): the melting point lay in the range of 164 to 166 °C.

In the case of `CC1(C)OC(/C=C/c2ccc(Br)cc2)=CC1=O`, the melting point was 109 to 110 °C.

`O=C(O)COc1cccc2c1CCc1sc(SCC=Cc3ccccc3)nc1-2` returned a melting point of 171 to 172 °C.

`CCC(=O)Nc1ccc(-c2ccnc3c(C(=O)c4ccco4)cnn23)cc1` displayed a melting point of 235 to 237 °C.

Take `CC(C)(C)OC(=O)N[C@@H](C(=O)N1CCC[C@H]1C(=O)NC1CCc2n[nH]cc2C1)C(c1ccccc1)c1ccccc1` (some centres not stated): the melting point lay within 119 to 122 °C.

`O=C(O)CN1C(=O)C(=Cc2cc(Cl)ccc2O)SC1=S`: the melting point was in the range of 243 to 247 °C.

On to `O=C1Nc2cc([N+](=O)[O-])ccc2OC1CCO` (configuration not stated), for which the melting point was in the range of 174 to 175 °C.

The compound `Cn1c(C(F)(F)F)cc(=O)n(-c2ccc3snc(C(=O)O)c3c2)c1=O` returned a melting point of 149 to 152 °C.

The compound `COc1cc(CBr)ccc1-c1ccccc1` gave a melting point of 187 to 189 °C.

The compound `CCOCc1nc2c(N(Cc3ccccc3)Cc3ccccc3)nc(Cl)c(C)c2n1N` yielded a melting point of 127 to 129 °C.

In turn, `CS(=O)(=O)Nc1ccc(N2CCN(Cc3ccc(-c4ccccc4)o3)CC2)cc1` came in with a melting point of 178 °C.

In turn, `COc1ccc(-c2nc(Br)c(C(F)(F)F)[nH]2)cc1` came in with a melting point of 177 to 178 °C.

The compound `NC(=O)c1ccc(Nc2nc(OCC3CCCCC3)c3nc[nH]c3n2)cc1` yielded a melting point of 156 to 158 °C.

Turning to `NC(=O)CCn1c2ccc(O)cc2c2c3c(c(-c4c(Cl)cccc4Cl)cc21)C(=O)NC3=O`, the melting point was 327 to 329 °C.

Turning to `CN(C)c1ccc(-c2[nH]nc3c2C(=O)c2c(NC(=O)CN4CCOCC4)cccc2-3)cc1`, the melting point is more than 300 °C.

Consider `CCOC(=O)Cc1ccc2cc(Br)ccc2n1`, for which the melting point lay within 100 to 101 °C.

As for `Cn1ccnc1C(O)(c1ccc(Cl)cc1)c1ccc(Cl)cc1`, the melting point lay within 190 to 191 °C.

Turning to `CC(=O)Nn1cc(C)n(C)c1=O`, the melting point lay within 199 to 201 °C.

`O=C(CC(c1ccccc1)(c1ccccc1)c1ccccc1)Nc1ccc(N2CCNCC2)cc1` returned a melting point of 193 to 195 °C.

`Fc1ccc2[nH]c(CC3CCN(CC4CCc5ccccc5O4)CC3)cc2c1` (configuration not stated) gave a melting point of 187 to 190 °C.

Regarding `Cc1nc(C)c(C(=O)Nc2ccc(-n3nc(C4CC4)cc3C3CC3)cc2)s1`, the melting point fell in the range of 98 to 114 °C.

`N#CCCN1CC2C(C1)C2Nc1ncc2cc(-c3ccccc3Cl)c(=O)n(C3CC3)c2n1` (configuration not stated): the melting point lay within 150 to 152 °C.

In turn, `CCCCC(CNc1ncc(OC)c(C)n1)c1ccccc1` (configuration not stated) gave a melting point of 39 to 40 °C.

`CCOC(=O)c1cnc2cc(-c3ccccc3)sc2c1O` came in with a melting point of 286 to 289 °C.

For the compound `CCN(CC)CC=CC(=O)Nc1ccc2ncnc(Nc3cccc(Br)c3)c2c1`, the melting point fell in the range of 196 to 199 °C.

Regarding `O=C(O)c1ccc(OCCNC(=O)C2Cc3ccccc3N2S(=O)(=O)c2ccc(-c3cc(C(F)(F)F)ccc3Cl)cc2)cc1Cl` (configuration not stated), the melting point is 106 to 112 °C.

Consider `N#Cc1ccc2c(C#N)c3cc(C#N)ccc3c(C#N)c2c1`, for which the melting point is 345 °C.

In the case of `COC(=O)Nc1cc2c(cn1)[nH]c1ccccc12`, the melting point lay within 180 to 182 °C.

`CCCCCCCCCCCCOc1ccc(C2=C(O)CSC2=O)cc1` came in with a melting point of 173 to 175 °C.

For the compound `O=C1Nc2ccccc2Cc2sccc21`, the melting point is 225 to 236 °C.

`COc1ccc(-c2c(C(=O)O)n(Cc3cc4c(cc3Cl)OCO4)c3ccccc23)cc1`: the melting point lay within 189 to 190 °C.

Consider `COc1ccc2nc(C)[nH]c(=O)c2c1Br`, for which the melting point lay within 273 to 274 °C.

`CN1CCC(OC(=O)Cc2cnn(-c3ccccc3)c2-c2ccc(Cl)cc2)CC1` gave a melting point of 90 to 93 °C.

In turn, `Cc1oc(-c2ccc3ccccc3c2)nc1CCc1ccc(CCCC2OC(=O)NC2=O)cc1` (configuration not stated) gave a melting point of 168 to 169 °C.

`O=C(O)CCCCCOc1cc(-c2ccccc2)cc(-c2ccccc2)c1` yielded a melting point of 104 °C.

`COc1ccc(C(=O)Nc2ccc(F)cc2)cc1NS(=O)(=O)c1ccc([N+](=O)[O-])cc1` came in with a melting point of 208 to 211 °C.

In turn, `C=CCOc1ccc2cc(Br)ccc2c1` returned a melting point of 35 to 37 °C.

As for `Clc1ccc2c(c1)N(c1ncnc3ccc(N4CCOCC4)cc13)CC2`, the melting point fell in the range of 277 to 279 °C.

`Cn1cnc2nc(NC(=O)c3ccccc3)nn2c1=S` gave a melting point of 273 to 276 °C.

For the compound `COC(=O)CCC(=O)Nc1cc(Cl)ccc1C(=O)OC`, the melting point lay within 80 to 84 °C.

On to `CC(C)[C@H](NC(=O)N(C)Cc1csc(C2CCC2)n1)C(=O)N[C@@H](Cc1ccccc1)C[C@H](O)[C@H](Cc1ccccc1)NC(=O)OCc1cncs1`, for which the melting point fell in the range of 74 to 76 °C.

With `COc1ccc(C=C2COCC(=Cc3ccc(OC)c(C)c3C)C2=O)c(C)c1C`, the melting point was 225 to 227 °C.

Turning to `COC(=O)CCCc1cc2nc(Cl)ccc2n1S(=O)(=O)c1ccc(F)cc1`, the melting point was 119 °C.

In turn, `N#Cc1ccc(CN(N)c2ccc(Br)cc2)cc1` came in with a melting point of 114 °C.

As to `c1ccc2c(c1)[C@H](N1CCCCC1)C[C@@H]2N1CCCCC1`, the melting point was 114 to 115 °C.

Compound `CC1=NCC(=S)Nc2ccc(Cl)cc21` gave a melting point of 201 to 203 °C.

For the compound `CCCCNC(=O)NS(=O)(=O)c1ccccc1S(=O)(=O)C(C)C`, the melting point was 164 to 166 °C.

Regarding `COc1cc(C(=O)c2nc(NS(C)(=O)=O)c3ccccn23)ccc1[N+](=O)[O-]`, the melting point stood at 231 °C.

The compound `CCc1n[nH]c(CC)c1CCCCCCOc1ccc(O)cc1Cl` yielded a melting point of 109 to 111 °C.

In turn, `CCc1nn(C2CCCC2)c2cc(C(=O)OC)ccc12` came in with a melting point of 106 to 109 °C.

`CC(C)(C)n1ncc(OCc2ccc(OC(F)(F)C(F)OC(F)(F)F)cc2)c(Cl)c1=O` (configuration not stated): the melting point fell in the range of 68 to 69 °C.

In turn, `O=[N+]([O-])c1cn2c(n1)OC(COc1ccc(N3CCN(NCc4ccc(-c5ccc(C(F)(F)F)cc5)cc4)CC3)cc1)CC2` (configuration not stated) displayed a melting point of 294 to 295 °C.

`CCc1nc2c(cnn2CC)c(NC2CCOCC2)c1CNC(=O)c1cccc(C(=O)NCc2cc(Cl)cc(-c3cccc(CN4CCN(C)CC4)c3)c2)c1` had a melting point of 116 to 118 °C.

On to `CCCCc1nn(-c2cc(NC(=O)CC)ccc2Br)c(=O)n1Cc1ccc(-c2ccccc2S(=O)(=O)NC(=O)OC(C)(C)C)cc1F`, for which the melting point lay within 123 to 126 °C.

Turning to `Cc1c2n(c3ccccc13)C(=O)C(C(O)c1ncn(C(c3ccccc3)(c3ccccc3)c3ccccc3)c1C)CC2` (configuration not stated), the melting point lay in the range of 153 to 169 °C.

Regarding `OC1CCc2c(Cl)cc(Cl)c(I)c21` (configuration not stated), the melting point lay in the range of 95 to 100 °C.

`COc1cc(CCCOc2c(CC(=O)O)cccc2OC)n(Cc2ccc(Cl)cc2Cl)n1`: the melting point is 111 to 112 °C.

With `C[C@@H]1NC(=O)OC1(C)C`, the melting point amounted to 60 °C.

In turn, `Cc1c(C(=O)N[C@H](C)[C@](O)(Cn2cncn2)c2ccc(F)cc2F)cnn1-c1ccc(C(F)(F)F)cc1` came in with a melting point of 180 to 181 °C.

`O=S1(=O)C=C(Br)C=C1CO` returned a melting point of 56 to 57 °C.

Turning to `O=C(c1ccccc1)c1c(O)c2c(C(=O)O)cccc2[nH]c1=O`, the melting point is more than 300 °C.

Compound `Clc1nc(Cl)nc(NC2CC2)n1` yielded a melting point of 99 to 101 °C.

As for `CC(=O)O[C@@H]1[C@H](OC(C)=O)[C@@H](C)O[C@H]1n1c(Cl)nc2c(Br)c(Cl)c(Cl)cc21`, the melting point was 138 to 141 °C.

As to `CC(=O)C1(COC(=O)Oc2ccccc2)CC2C=CC1C2` (configuration not stated), the melting point was in the range of 76 to 77 °C.

In turn, `CN(C)C1Cc2cccc3[nH]c(=O)n(c23)C1` (configuration not stated) returned a melting point of 220 to 223 °C.

With `COc1ccc2c(c1)C(=O)N(c1ccc3c(c1)NCCN3)C2`, the melting point fell in the range of 159 to 163 °C.

On to `CC(=O)N1CCn2c(CN3CCOCC3)ccc2C1`, for which the melting point lay in the range of 117 to 118 °C.

The compound `COc1ccc(C(=O)Nc2ccccc2C(=O)NCCCC(=O)O)c(O)c1` had a melting point of 201 to 203 °C.

`CC(O)c1cc(F)ccc1Oc1nc2ccc(-n3cc(-c4ccccc4)nn3)cc2cc1Cc1ccccc1` (configuration not stated) yielded a melting point of 103 °C.

As for `CCc1c2nc(-c3cc(S(C)(=O)=O)ccc3OCC(C)C)[nH]c(=O)c2nn1Cc1ccccn1`, the melting point lay in the range of 235 to 238 °C.

In turn, `O=C(C1CCCCC1)N1CC(=NO)NC(=NO)C1` displayed a melting point of more than 260 °C.

In the case of `CC(C)(C)c1cc(CCC(=O)NNC(=O)C=Cc2ccc(Cl)cc2)cc(C(C)(C)C)c1O`, the melting point was in the range of 276 to 277 °C.

Compound `COc1ccc(C(=O)N2c3ccccc3C(n3c4ccccc4c4ccccc43)CC2CCCCCN2CCC(c3cccc(C(F)(F)F)c3)CC2)cc1OC` (configuration not stated) displayed a melting point of 149 to 150 °C.

The compound `c1ccc2c(c1)ccc1c(-c3ccncc3)[nH]nc12` yielded a melting point of 271 to 273 °C.

The record behind these values is a melting point compilation (Tetko et al.; mined from patent text by program, amines drawn as free bases though some values may be those of a salt).
